# Results reported in the COVID Moonshot data (paper PMC7615835).
# Several values for one entry are separate records, joined by “and”; a condition that tells them apart may be missing. Equal entries are not always repeated.
# Biological target: SARS-CoV-2 Main Protease (SARS-CoV-2) (UniProt P0DTD1)
row,Structure (SMILES),IC50
1,N#CC1(CS(=O)(=O)N2Cc3ccc(Cl)cc3[C@@H](C(=O)Nc3cncc4ccccc34)C2)CNC1 (stereo in doubt),1.62 µM
2,CC(C(=O)Nc1cccc2nccnc12)n1cnc2c(N)ncnc21 (stereo not drawn),> 99.5 µM
3,Cc1ccc(NC2=C(c3ccccc3)C(=O)N(Cc3cccnc3)C2=O)c(C)c1,> 99.5 µM
4,CS(=O)(=O)c1ccc2c(NC(=O)C3CN(CC(=O)NC4COC4)C(=O)c4ccc(Cl)cc43)cncc2c1 (stereo not drawn),0.866 µM
5,CC(C)(C)OC(=O)[C@H]1CCCN1c1cc(Cl)cc(CC(=O)Nc2cncc3ccccc23)c1 (stereo in doubt),2.52 µM
6,CNC(=O)CN1CC(C(=O)Nc2cncc3ccc(C(C)(C)O)cc23)c2cc(Cl)ccc2C1=O (stereo not drawn),0.384 µM
7,N#Cc1cc(CN2CCN(C(=O)CCl)CC2)c2ccccc2c1,4.61 µM
8,Cc1c(Br)cccc1Nc1cc(Cl)cc(CC(=O)Nc2cncc3ccccc23)c1,2.13 µM
9,C=CC(=O)N(c1ccc(C(C)(C)C)cc1)C(C(=O)NC(C)(C)C)c1cccnc1 (stereo not drawn),> 99 µM
10,CSCCCNC(=O)C(c1cccnc1)N(C(=O)c1cocn1)c1ccc(C(C)(C)C)cc1 (stereo not drawn),3.85 µM
11,Cc1csc2ncc(C(=O)Nc3cccc4ncccc34)c(=O)n12,> 99.5 µM
12,CC(C)(C)c1ccc(N(C(=O)c2sc(N3CCOCC3)nc2Cl)C(C(=O)NCCc2cccc(F)c2)c2cccnc2)cc1 (stereo not drawn),> 99.5 µM
13,O=C(Cc1cccc(Cl)c1)Nc1n[nH]c2ccncc12,> 99.5 µM
14,COC1(c2cccc(Cl)c2)CCCN(c2cncc3ccccc23)C1=O (stereo not drawn),2.08 µM
15,CNC(=O)CN1CC(C(=O)Nc2cncc3cccc(Cl)c23)c2cc(Cl)ccc2C1=O (stereo not drawn),0.0917 µM
16,O=C(Cn1nnc2ccccc21)N(Cc1cccc(Cl)c1)c1ccc(N2CCCCC2)cc1,3.65 µM
17,CCCCc1nc(-c2nccn2Cc2ccoc2)c[nH]1,14.3 µM
18,Cc1cc(C)nc(C#N)n1,> 99.5 µM
19,O=C1CN(C(=O)Cc2cccc(Cl)c2)Cc2ccccc21,> 99.5 µM
20,COc1ccccc1N1CCN(C(=O)c2cc(=O)[nH]c3ccccc23)CC1,32.8 µM
21,C[C@@]1(C(=O)Nc2cncc3ccccc23)CCNc2cc(Cl)c(Cl)cc21 (stereo in doubt),0.234 µM and 0.979 µM
22,CC(C)(C#N)CS(=O)(=O)N1Cc2ccc(Cl)cc2[C@H](C(=O)Nc2cncc3ccccc23)C1 (stereo in doubt),0.055 µM and 0.0969 µM and 0.141 µM
23,N#CCC(=O)N1CCc2ccc(Cl)cc2C1C(=O)Nc1cncc2ccccc12 (stereo not drawn),6.51 µM
24,Nc1ccccc1-c1nc2ccccc2n1-c1cc(Cl)cc(CC(=O)Nc2cncc3ccccc23)c1,5.09 µM
25,CC(=O)NCCc1c[nH]c2ccc(O)cc12,> 99.5 µM
26,CCOC(=O)N1Cc2ccc(Cl)cc2C(C(=O)Nc2cncc3ccccc23)C1 (stereo not drawn),0.236 µM

row,Structure (SMILES),IC50
1,O=C(Nc1cncc2ccccc12)C1CN(CC2CC2)C(=O)c2ccc(Cl)cc21 (stereo not drawn),0.381 µM
2,NS(=O)(=O)c1ccc2c(c1)CN(CC1CCN(C(=O)CCl)CC1)CC2,19.5 µM
3,CC(=O)NC(C)c1cc(Cl)cc(-c2ccc(S(N)(=O)=O)cc2)c1 (stereo not drawn),> 99.5 µM
4,Cn1ccc2cc(N(C(=O)c3cnc[nH]3)C(C(=O)NCCc3cccc(F)c3)c3cccnc3)ccc21 (stereo not drawn),> 99 µM
5,O=C(NCCc1cccc(F)c1)C(c1cccnc1)N(C(=O)c1ccco1)c1ccc(C2CCCC2)cc1 (stereo not drawn),0.282 µM
6,Cc1nnc(C2Cc3ccccc3CN2C(=O)CCl)o1 (stereo not drawn),53.5 µM
7,O=C(NCCc1cccc(F)c1)C(c1cccnc1)N(C(=O)c1cnc[nH]1)c1ccc2c(c1)COCC2 (stereo not drawn),> 99 µM
8,O=C(Cc1cncnc1)Nc1cc(F)cc(OC2CC(=O)N2)c1 (stereo not drawn),24.6 µM and 25.3 µM
9,COc1cc(OC)[n+](C)c(C#N)n1,> 99.5 µM
10,Cc1cc(C(=O)Nc2cnc3nccn3c2)nn1-c1ccc(F)cc1,> 99.5 µM
11,CC1CN(C)CCN1C(=O)CC1(C(=O)Nc2cncc3ccccc23)CCOc2ccc(Cl)cc21 (stereo not drawn),7.87 µM and 4.85 µM
12,O=[N+]([O-])c1cnc(Sc2nnc(-c3ccc(Cl)cc3)o2)s1,0.881 µM
13,CC(C)(C)c1ccc(N(C(=O)c2ocnc2C(F)(F)F)C(C(=O)NCCc2cccc(F)c2)c2cccnc2)cc1 (stereo not drawn),> 99.5 µM
14,COc1ccc(N(C(=O)c2ccco2)C(C(=O)NCCc2cccc(F)c2)c2cccnc2)cc1OCCO (stereo not drawn),> 99.5 µM
15,CCCC(C(=O)Nc1cnccc1C)c1cccc(Cl)c1 (stereo not drawn),17.9 µM and 16.8 µM
16,O=C(CCl)N1CCN(C2(c3cccc(Cl)c3)CC2)CC1,64.9 µM and 42.1 µM
17,O=C(NNc1nc2cccnc2s1)c1ccc2ccncc2c1,> 99.5 µM
18,O=C(Cc1cc(Cl)cc(Nc2ccc(I)cc2)c1)Nc1cncc2ccccc12,1.84 µM
19,CN1CCCC(N(C(=O)c2cocn2)C(C(=O)NCCc2cccc(F)c2)c2cccnc2)C1 (stereo not drawn),> 99.5 µM
20,Cn1ccn2c(CNC(=O)c3ccc4ncsc4c3)nnc2c1=O,> 99.5 µM
21,O=C(Cc1cccc(Cl)c1)Nc1cncc2nccnc12,76 µM
22,CC(C)(C)c1ccc(N(C(=O)c2cocn2)C(C(=O)NC2CCOC2)c2cccnc2)cc1 (stereo not drawn),2.77 µM
23,Cc1nnc(CNc2ccc3nnc(-c4ccccc4)n3n2)o1,> 99.5 µM
24,Clc1ccc2c(c1)C1(CCO2)CCN(c2cncc3cccc(Cl)c23)C1 (stereo not drawn),> 99.5 µM
25,O=C(CC1(C(=O)Nc2cncc3ccccc23)CCOc2ccc(Cl)cc21)Nc1nnco1 (stereo not drawn),> 99.5 µM
26,CC(C)(C)c1ccc(N(C(=O)c2ccco2)C(C(=O)NCCc2cccc(F)c2)c2cc(=O)[nH]c3ccccc23)cc1 (stereo not drawn),2.28 µM

row,Structure (SMILES),IC50
1,O=C(c1cncc2ccccc12)N1CCN(c2cccc(Cl)c2)CC1,1.6 µM
2,Cn1ccc(CN2Cc3ccc(Cl)cc3C(C(=O)Nc3cncc4ccc(F)cc34)C2)n1 (stereo not drawn),1.35 µM
3,CN1CCN(C2CCN(c3cc(Cl)cc(CC(=O)Nc4cncc5ccccc45)c3)CC2)CC1,4.56 µM
4,CCC(C(=O)O)N1CCCC(NC(=O)c2ccc3ccccc3c2)C1 (stereo not drawn),> 99.5 µM
5,COC1(c2cccc(Cl)c2)CCN(c2cncc3ccccc23)C1=O (stereo not drawn),0.467 µM
6,Cc1ccnc(NC(=O)C2CCOc3ccc(Cl)cc32)c1N (stereo not drawn),71.6 µM
7,O=C1NCC(C(=O)Nc2cnc3ccccn23)c2cc(Cl)ccc21 (stereo not drawn),5.93 µM
8,N#Cc1cc(Cl)ccc1Nc1cc(Cl)cc(CC(=O)Nc2cncc3ccccc23)c1,2.23 µM
9,Cc1ccncc1N(CC#N)C(=O)Cc1cccc(Cl)c1,> 99.5 µM
10,N#CC1(CS(=O)(=O)N2Cc3ccc(Cl)cc3C3(CCN(c4cncc5ccc(Cl)cc45)C3=O)C2)CC1 (stereo not drawn),0.82 µM
11,O=C1N(c2cncc3ccccc23)CCC12CN(S(=O)(=O)CC1(C(F)F)CC1)Cc1ccc(Cl)cc12 (stereo not drawn),0.155 µM
12,O=C(Cc1cc(Cl)cc(NCc2cc(Cl)cc(Cl)c2)c1)Nc1cncc2ccccc12,1.72 µM
13,O=C(Nc1cncc2ccccc12)C1c2cc(Cl)ccc2CCN1S(=O)(=O)C1CC1 (stereo not drawn),1.14 µM
14,CN(CC(=O)Nc1ccccc1Br)C(=O)CCl,5.9 µM
15,Cc1ccncc1NC(=O)C(CO)c1cccc(Cl)c1 (stereo not drawn),> 99.5 µM
16,COc1ccc(Cl)cc1N1C(=O)CN(Cc2cc(=O)[nH]c3ccccc23)C1=O,> 99.5 µM
17,O=C(Nc1cncc2ccccc12)C1CN(CC(F)(F)F)Cc2ccc(Cl)cc21 (stereo not drawn),3.41 µM
18,O=C(c1cc(=O)[nH]c2ccccc12)N1CCN(c2cccc(Cl)c2)C(=O)C1,15.8 µM
19,O=C(Cc1cc(Cl)ccc1Cl)Nc1cncc2ccccc12,1.02 µM
20,CN(C)CCCN(Cc1cccs1)C(=O)Cc1cncc2ccccc12,> 99.5 µM
21,COc1ccc([N+](=O)[O-])cc1COC(=O)c1cnc2ccccc2n1,> 99.5 µM
22,CC(=O)NC(C(=O)Nc1cncc2ccccc12)c1ccc(Cl)c(Cl)c1 (stereo not drawn),4.05 µM
23,Cc1cc(C(=O)CCl)c(C)n1NC(=O)c1n[nH]c(=O)c2ccccc12,6.05 µM
24,O=C(Cc1ccc(Cl)c(Cl)c1)Nc1cncc2ccccc12,0.178 µM and 0.384 µM
25,O=C(Cc1cc(Cl)cc(Oc2cccc(=O)[nH]2)c1)Nc1cncc2ccccc12,1.98 µM
26,O=C(Cn1nnc2ccccc21)Nc1cccc(Cl)c1,> 99.5 µM

row,Structure (SMILES),IC50
1,CC(C)(C)c1ccc(N(C(=O)c2nccs2)C(C(=O)NCCc2cccc(F)c2)c2cccnc2)cc1 (stereo not drawn),0.8 µM
2,CCCc1cc2c(cc1S(=O)(=O)N1CCN(c3ncccn3)CC1)OCO2,> 99.5 µM
3,NS(=O)(=O)CCc1ccccc1CN1CCN(C(=O)CCl)CC1,2.72 µM
4,Nc1nn(C(=O)C2CCOc3ccc(Cl)cc32)c2ccncc12 (stereo not drawn),87.2 µM
5,CC1(C)OB(c2cnc(C#N)nc2)OC1(C)C,> 99.5 µM
6,CCOC(=O)Cn1cc(C(=O)N(c2ccc(C(C)(C)C)cc2)C(C(=O)NCCc2cccc(F)c2)c2cccnc2)nn1 (stereo not drawn),44 µM
7,Cc1cc(Nc2cc(Cl)cc(CC(=O)Nc3cncc4ccccc34)c2)c(F)cc1Br,2.05 µM
8,CCC(=O)Nc1ccc(N(Cc2ccccc2)C(=O)n2nnc3ccccc32)cc1,> 99.5 µM
9,CS(=O)(=O)N1Cc2cc(F)c(Cl)cc2C(C(=O)Nc2cncc3ccccc23)C1 (stereo not drawn),0.258 µM
10,CCCCc1nc(-c2nccn2CCc2ccccn2)c[nH]1,21.7 µM
11,O=C(Cc1cc(Cl)cc(N[C@H](c2ccccc2)[C@@H](O)c2ccccc2)c1)Nc1cncc2ccccc12 (stereo in doubt),2.24 µM
12,CNC(=O)CN1CC(C(=O)Nc2cncc3cccc(C)c23)c2cc(Cl)ccc2C1=O (stereo not drawn),0.361 µM
13,COC1(C(=O)Nc2cncc3cc(S(=O)(=O)N(C)C)ccc23)CCOc2ccc(Cl)cc21 (stereo not drawn),0.458 µM
14,C=CC(=O)Nc1cc(C(=O)NC[C@H](Cc2ccccc2)c2ccccn2)ccc1O (stereo in doubt),> 99.5 µM
15,Cn1cc(CN(C(=O)Cn2nnc3ccccc32)c2ccc(N3CCCCC3)cc2)cn1,> 99.5 µM
16,Cc1ccc(S(=O)(=O)N2CCN(C(=O)CCl)C[C@H]2C(=O)NC2CCCCC2)cc1 (stereo in doubt),4.48 µM
17,CN(C)c1ccc(N(Cc2cccc(Cl)c2)C(=O)Cn2nnc3ccccc32)cc1,0.497 µM
18,O=C(Cc1cc(Cl)cc(NC(c2ccccc2)c2ccccc2)c1)Nc1cncc2ccccc12,3.36 µM
19,O=C(CCl)N1CCCN(S(=O)(=O)c2c(F)cccc2F)CC1,20.2 µM
20,O=C(Nc1cncc2ccccc12)C1CN(C(=O)C2CC2)Cc2ccc(Cl)cc21 (stereo not drawn),0.487 µM
21,O=C(NCCc1cccc(F)c1)C(c1cccnc1)N(C(=O)c1cocn1)[C@H]1C[C@H](Oc2ccccc2)C1 (stereo partly drawn),> 99.5 µM
22,O=C(O)CN1C(=O)C(=O)c2cc([N+](=O)[O-])ccc21,> 99.5 µM
23,N#CC1(CS(=O)(=O)N2Cc3ccc(Cl)cc3[C@@H](C(=O)Nc3cncc4ccccc34)C2)CCOCC1 (stereo in doubt),15.2 µM
24,COc1cc(COc2cc(Cl)cc(CC(=O)Nc3cnccc3C)c2)ccc1OC(F)F,> 99.5 µM
25,COc1ccccc1OC(C)CNC(=O)c1cc(=O)[nH]c2cc(F)ccc12 (stereo not drawn),> 99.5 µM
